The source of these data is publication PMC10048804, “Coumarin-Based Compounds as Inhibitors of Tyrosinase/Tyrosine Hydroxylase: Synthesis, Kinetic Studies, and In Silico Approaches” (International Journal of Molecular Sciences, 2023).

Entries after “also recorded” stand apart in the source; their conditions may differ. Like-named read-outs stand apart in the source and are kept apart here.

Series [1] deals with mushroom tyrosinase. Particulars: ref [39],[40],[41]; cited from earlier work.
Series [2] has as its system cellular tyrosinase in B16F10 cells. The note with it: ref [39],[40],[41]; cited from earlier work.
The test system of another series is B16F10 cells. The note with it: ref [39],[40],[41]; cited from earlier work.
In series [3] the target is tyrosinase. The note with it: cited from earlier work.
A further series has as its system intracellular tyrosinase. More on the design: method as in PMID 35063859. Particulars: ref [45], cited from earlier work.
The subject of the next series is production of melanin. More on the design: method as in PMID 35063859. The note with it: ref [45]; cited from earlier work.
For series [4], the target named is T1, mushroom tyrosinase (Agaricus bisporus, UniProt C7FF04). Kind of series: Kinetic analysis of the inhibition of tyrosinase (Lineweaver-Burk plots). Particulars: L-DOPA substrate. In kind it is biochemical. More on the design: purchased Sigma-Aldrich. As for the experimental part: The mechanism for tyrosinase inhibition of the tested compounds was determined from Lineweaver–Burk double reciprocal plots. The plot provides a useful graphical method for analysis of the Michaelis–Menten equations used to determine the Km values for possible competitive, uncompetitive, non-competitive, and mixed mechanisms of inhibition. All Lineweaver–Burk plots can be found in the Supplementary Information. As can be easily noticed, the majority of tested compounds are characterized by the mixed mode of inhibition (Table 2). It is a type of enzyme inhibition in which the inhibitor may bind to the enzyme whether or not the enzyme has already bound to the substrate.
A series of experiments was performed to determine the inhibition kinetics of the tested compounds following the already reported method. The inhibitor concentrations for the tested compounds were 0.05 and 0.1 mM. The substrate L-DOPA concentration was between 0.1 and 0.25 mM in all kinetic studies, but for the FN-06 and FN-27 compounds, concentrations between 0.15 and 0.3 mM were used. Maximal initial velocity was determined from the initial linear portion of absorbance up to ten minutes after the addition of the enzyme. The inhibition type of the enzyme, Michaelis constant (Km), and maximal velocity (Vmax) were determined using Lineweaver–Burk plots of the inverse of velocities (1/V) versus the inverse of substrate concentration 1/[L-DOPA] mM^−1.
Target sequence in this assay (C7FF04 1-392 limits assumed): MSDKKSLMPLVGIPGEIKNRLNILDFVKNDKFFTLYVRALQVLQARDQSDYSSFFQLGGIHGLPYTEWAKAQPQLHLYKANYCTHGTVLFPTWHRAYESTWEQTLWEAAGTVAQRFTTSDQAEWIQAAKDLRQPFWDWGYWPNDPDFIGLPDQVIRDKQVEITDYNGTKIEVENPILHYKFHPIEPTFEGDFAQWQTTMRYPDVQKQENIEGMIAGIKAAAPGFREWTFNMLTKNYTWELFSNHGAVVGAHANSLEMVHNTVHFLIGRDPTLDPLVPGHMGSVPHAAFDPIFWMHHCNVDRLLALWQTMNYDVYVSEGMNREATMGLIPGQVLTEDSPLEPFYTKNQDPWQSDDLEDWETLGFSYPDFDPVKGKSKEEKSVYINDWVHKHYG

Series [5] deals with T2, tyrosinase (Agaricus bisporus, UniProt C7FF04).
T2 construct: purchased Sigma-Aldrich
Kind of series: UV-Vis spectra of L-DOPA oxidation by tyrosinase in absence and presence of inhibitor. In kind it is biochemical, mushroom. The note with it: after 30 min, versus L-DOPA with tyrosinase. The method, then:
The remaining compound FN-40 is a competitive inhibitor, which binds to the enzyme at its active site, preventing the binding of the substrate to the enzyme. […] To observe the effect of the oxidation of L-DOPA by tyrosinase in the absence and presence of the tested compounds, the UV-Vis spectra were determined. During L-DOPA oxidation by tyrosinase, a characteristic signal at 475 nm is observed in the UV-Vis spectrum, corresponding to the formation of dopachrome.

The target in series [6] is T1, mushroom tyrosinase. Description: Mushroom tyrosinase inhibition assay (L-DOPA substrate, dopachrome at 475 nm). In kind it is biochemical. The method, then:
All compounds were tested for their inhibitory effects on mushroom tyrosinase using L-DOPA as substrate. In general, the results were compared with standard tyrosinase inhibitors, such as kojic acid and ascorbic acid. […]. The mushroom tyrosinase (Sigma-Aldrich) inhibition was performed following previously reported methods. All assays were carried out with solutions containing phosphate buffer (50 mM, pH 6.8), L-DOPA (0.17 mM), EDTA (0.022 mM), tyrosinase (50–100 units), and varying concentrations of compounds, and were performed in triplicate at room temperature. The inhibitor solutions were prepared in DMSO with an initial concentration of 1 mM. Different aliquots were added to the solution containing buffer, L-DOPA, and EDTA, the enzyme being added in the end. The formation of dopachrome was determined by monitoring the absorbance at 475 nm with a T60U spectrophotometer (PG Instruments) equipped with quartz cells of 1 cm path length. Kojic acid and ascorbic acid were used as reference inhibitors with an initial concentration of 1 mM. The IC50 values were calculated from the equation generated with an exponential fit of the experimental data. […]
Target sequence in this assay (C7FF04 2-392): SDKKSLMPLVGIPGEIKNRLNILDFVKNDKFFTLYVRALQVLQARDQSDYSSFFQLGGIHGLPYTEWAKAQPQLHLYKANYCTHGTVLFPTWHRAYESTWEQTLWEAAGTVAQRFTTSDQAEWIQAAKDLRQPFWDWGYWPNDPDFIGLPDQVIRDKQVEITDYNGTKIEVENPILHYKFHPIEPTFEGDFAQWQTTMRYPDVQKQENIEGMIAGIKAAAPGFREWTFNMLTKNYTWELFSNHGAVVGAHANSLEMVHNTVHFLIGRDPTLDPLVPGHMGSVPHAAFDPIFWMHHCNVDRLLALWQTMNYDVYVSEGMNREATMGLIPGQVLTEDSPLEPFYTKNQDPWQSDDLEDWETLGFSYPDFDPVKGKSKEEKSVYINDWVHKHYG

T2 sequence (C7FF04 1-392 limits assumed): as the sequence (C7FF04 1-392 limits assumed) above

In the case of `O=c1oc2cc(O)cc(O)c2cc1-c1cccs1` [Compound 1], the IC50 on mushroom tyrosinase [1] is 150 ± 28 nM.

For `O=c1oc2cc(O)cc(O)c2cc1-c1cc(Br)cs1` [Compound 2], in [2], the cellular tyrosinase activity result was “able to inhibit”. Moreover, the IC50 on mushroom tyrosinase [1] is 380 ± 84 nM. The melanin production entry in the series with B16F10 cells is “able to inhibit”.

With `O=c1oc2cc(O)cc(O)c2cc1-c1ccc(Br)cc1` [Compound 3], the cellular tyrosinase activity entry in series [2] is recorded as “able to inhibit”. Further, the IC50 on mushroom tyrosinase [1] was 1050 ± 56 nM. Further, the melanin production result in the series on B16F10 cells is on record as “able to inhibit”.

For the compound `COc1cc(C2CC(c3cc4ccccc4oc3=O)=NN2c2nc(-c3ccc(Br)cc3)cs2)ccc1OCc1ccccc1` (stereo not shown) [Compound 5], on tyrosinase [3] (ref [43]), the IC50 is 4.58 ± 0.22 nM.

As for `CC(C)=CCOc1c2occc2cc2ccc(=O)oc12` [Compound 6, marmelosin], the IC50 at tyrosinase [3] (ref [44]) was 20300 ± 1260 nM.

With `CC(C)=CC(=O)O[C@H]1Cc2cc3ccc(=O)oc3cc2OC1(C)C` [Compound 7, decursin], the “%Tyrosine inh.” value in the series on intracellular tyrosinase (at 30 μM) is recorded as 59.8 ± 0.6%. Further, the “intracellular activity of tyrosinase” value in the series with intracellular tyrosinase is “decreases”. In addition, the production of melanin result in the series on production of melanin was “reduces”.

Regarding `CC(=O)c1cc2ccc(O)cc2oc1=O` [FN-06, 3. -Acetyl-7-hydroxy-2H-chromen-2-one], on mushroom tyrosinase [4] (compound at 0.1 mM), the “Inhibitory Mechanism” value was “mixed inhibitors”.

Regarding `COc1cccc2cc(C(C)=O)c(=O)oc12` [FN-07, 3. -Acetyl-8-methoxy-2H-chromen-2-one], the “Inhibitory Mechanism” value on mushroom tyrosinase [4] (compound at 0.1 mM) is reported as “Mixed”.

The compound `CN(C)c1ccc(/C=C/C(=O)c2cc3ccccc3oc2=O)cc1` [FN-10, 3. -((E)-3-(4-(Dimethylamino)phenyl)acryloyl)-2H-chromen-2-one] yielded a melting point of 111 to 112 °C. Further, the “Inhibitory Mechanism” value on mushroom tyrosinase [4] (compound at 0.05 mM) is “mixed inhibitors”.

`C/C(=N\NC(N)=O)c1cc2ccc(O)cc2oc1=O` [FN-17, (1E)-1-(1-(7-Hydroxy-2-oxo-2H-chromen-3-yl)ethylidene)semicarbazide] returned a melting point of 226 to 229 °C. Besides, the “Inhibitory Mechanism” value at mushroom tyrosinase [4] (compound at 0.1 mM) is given as “Mixed”.

For the compound `C/C(=N\NC(N)=S)c1cc2ccc(O)cc2oc1=O` [FN-19, (1E)-1-(1-(7-Hydroxy-2-oxo-2H-chromen-3-yl)ethylidene)thiosemicarbazide], the “Inhibitory Mechanism” value on mushroom tyrosinase [4] (compound at 0.1 mM) is “mixed inhibitor; also recorded: mixed mode”. Further, the “signal intensity at 475 nm (dopachrome formation)” value at tyrosinase [5] was “significant reduction; also recorded: significantly reduce”.

In turn, `COc1cccc2cc(/C(C)=N/NC(N)=O)c(=O)oc12` [FN-25, (1E)-1-(1-(8-Methoxy-2-oxo-2H-chromen-3-yl)ethylidene)semicarbazide] had a melting point of 240 to 242 °C. Further, on mushroom tyrosinase [4] (compound at 0.1 mM), the “Inhibitory Mechanism” value was “Mixed”.

In the case of `COc1cccc2cc(/C(C)=N/NC(N)=S)c(=O)oc12` [FN-27, (1E)-1-(1-(8-Methoxy-2-oxo-2H-chromen-3-yl)ethylidene)thiosemicarbazide], on mushroom tyrosinase [4] (compound at 0.1 mM), the “Inhibitory Mechanism” value is reported as “mixed inhibitors”.

Compound `COc1cccc2cc(/C(C)=N/NC(=O)c3ccncc3)c(=O)oc12` [FN-29, (13E)-N’-(1-(8-Methoxy-2-oxo-2H-chromen-3-yl)ethylidene)isonicotinohydrazide] came in with a melting point of 202 to 206 °C. In addition, on mushroom tyrosinase [6] (in words), the “solubility in the tyrosinase assay” value is recorded as “not soluble”. For the same compound, the “Inhibitory Mechanism” value on mushroom tyrosinase [4] (compound at 0.1 mM) is “Mixed”.

Regarding `CC(=O)c1cc2cc(Br)ccc2oc1=O` [FN-40], the “Inhibitory Mechanism” value on mushroom tyrosinase [4] (compound at 0.1 mM) was “Competitive”.

As to `CC(=O)c1cc2cc([N+](=O)[O-])ccc2oc1=O` [MP-03, 3. -Acetyl-6-nitro-2H-chromen-2-one], the melting point fell in the range of 201 to 203 °C. At mushroom tyrosinase [4] (compound at 0.1 mM), the “Inhibitory Mechanism” value is “Uncompetitive”.

In the case of `CC(=O)c1cc2ccc(C)cc2oc1=O` [MP-04, 3. -Acetyl-7-methyl-2H-chromen-2-one], the melting point lay in the range of 157 to 159 °C. Further, at mushroom tyrosinase [4] (compound at 0.1 mM), the “Inhibitory Mechanism” value is “Noncompetitive”.

In the case of `CC(=O)c1cc2ccccc2oc1=O` [MP-05, 3. -Acetyl-2H-chromen-2-one], the “Inhibitory Mechanism” value at mushroom tyrosinase [4] (compound at 0.1 mM) is “Mixed”.

“(E)-N’-(4-(dimethylamino)benzylidene)-2-methylene-2H-chromene-3-carbohydrazide [FN-11]” showed an IC50 against mushroom tyrosinase [6] (mushroom tyrosinase, L-DOPA 0.17 mM as substrate, pH 6.8, triplicate, room temperature) of 159000 nM. For the same compound, the “Inhibitory Mechanism” value at mushroom tyrosinase [4] (compound at 0.1 mM) is “Mixed”.

The IC50 is the point on the concentration scale where inhibition reaches its midpoint. As usually defined, the melting point is the temperature, or range, at which the solid turns liquid.
